Experimental data as given in publication PMC8402619 (Viruses, 2021).

How the values were obtained:
[1] = Plasma protein binding by equilibrium dialysis, human plasma; assay type: in vitro ADME
[2] = Plasma protein binding by equilibrium dialysis, rat plasma; assay type: in vitro ADME; conditions: pH 7.4
[3] = Plasma protein binding by equilibrium dialysis, monkey plasma; assay type: in vitro ADME; conditions: pH 7.4
[4] = Metabolism in human intestinal S9 fraction; assay type: in vitro ADME; conditions: [3H]islatravir 5 µM, M4 the only metabolite detected
[5] = molecular target: T1, recombinant human adenosine deaminase (ADA) (Homo sapiens, UniProt P00813); assay: Metabolism and enzyme kinetics with recombinant human ADA; assay type: in vitro ADME
T1 construct: purchased Novus Biologicals, LLC

[6] = Renal clearance after 1 mg/kg intravenous, mouse; assay type: in vivo, male CD-1 mice; conditions: 1 mg/kg intravenously
[7] = Renal clearance after 1 mg/kg intravenous, rabbit; assay type: in vivo, female Dutch Belted rabbits; conditions: 1 mg/kg intravenously
[8] = molecular target: T2, CYP2C8 (Homo sapiens, UniProt P10632); assay: Reversible CYP inhibition in pooled human liver microsomes; assay type: in vitro ADME
T2 sequence (P10632 1-490): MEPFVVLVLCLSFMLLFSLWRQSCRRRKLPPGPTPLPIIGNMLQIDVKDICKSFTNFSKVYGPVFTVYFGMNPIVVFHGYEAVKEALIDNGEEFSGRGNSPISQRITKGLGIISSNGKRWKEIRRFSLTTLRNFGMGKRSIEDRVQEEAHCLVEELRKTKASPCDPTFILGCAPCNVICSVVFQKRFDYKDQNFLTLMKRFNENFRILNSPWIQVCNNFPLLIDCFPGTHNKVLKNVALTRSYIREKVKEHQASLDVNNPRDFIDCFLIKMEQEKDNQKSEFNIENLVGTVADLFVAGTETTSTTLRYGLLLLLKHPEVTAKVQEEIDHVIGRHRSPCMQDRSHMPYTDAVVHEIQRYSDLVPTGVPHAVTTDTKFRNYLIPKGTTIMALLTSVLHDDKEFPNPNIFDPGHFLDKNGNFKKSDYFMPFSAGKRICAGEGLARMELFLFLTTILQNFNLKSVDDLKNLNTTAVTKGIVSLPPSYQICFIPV

[9] = molecular target: CYP2D6 (Homo sapiens, UniProt P10635); assay: as above; assay type: in vitro ADME
[10] = molecular target: CYP3A4 (Homo sapiens, UniProt P08684); assay: as above; assay type: in vitro ADME
[11] = molecular target: T2, CYP2C8; assay: Time-dependent CYP inhibition in pooled human liver microsomes; assay type: in vitro ADME
[12] = molecular target: CYP2C19 (Homo sapiens, UniProt P33261); assay: as above; assay type: in vitro ADME
[13] = test system: CYP3A4; assay: CYP induction in cryopreserved human hepatocytes; assay type: in vitro ADME; conditions: for mRNA Mean Fold Change ± SD CYP3A4: 48 h, n = 3 donors, vs DMSO vehicle
[14] = molecular target: T3, OATP1B1 (Homo sapiens, UniProt Q9Y6L6); assay: Inhibition of transporter-mediated probe uptake in HEK293-OATP1B1 cells; assay type: in vitro ADME
T3 construct: host or cells: HEK293
T3 sequence (Q9Y6L6 1-691): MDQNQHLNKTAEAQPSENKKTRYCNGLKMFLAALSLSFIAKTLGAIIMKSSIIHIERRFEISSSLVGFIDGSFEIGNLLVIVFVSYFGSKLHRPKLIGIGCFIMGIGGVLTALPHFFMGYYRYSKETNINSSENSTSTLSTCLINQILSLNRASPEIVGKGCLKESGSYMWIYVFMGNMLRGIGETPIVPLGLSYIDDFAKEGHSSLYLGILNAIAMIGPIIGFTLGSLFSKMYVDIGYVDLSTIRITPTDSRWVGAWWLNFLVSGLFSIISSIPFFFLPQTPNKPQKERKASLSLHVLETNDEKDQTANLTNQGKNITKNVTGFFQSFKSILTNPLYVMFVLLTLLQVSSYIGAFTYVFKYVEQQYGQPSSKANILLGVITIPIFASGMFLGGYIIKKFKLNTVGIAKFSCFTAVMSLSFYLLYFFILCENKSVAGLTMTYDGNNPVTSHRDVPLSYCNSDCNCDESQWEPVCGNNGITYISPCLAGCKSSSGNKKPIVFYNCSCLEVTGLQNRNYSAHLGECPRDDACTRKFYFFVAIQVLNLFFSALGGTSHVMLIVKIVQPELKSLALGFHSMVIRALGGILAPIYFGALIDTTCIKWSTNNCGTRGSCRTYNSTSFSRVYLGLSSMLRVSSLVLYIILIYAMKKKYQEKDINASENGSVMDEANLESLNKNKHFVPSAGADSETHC

[15] = molecular target: T4, MRP4 (Homo sapiens, UniProt O15439); assay: Inhibition of ATP-dependent probe uptake in Sf9 membrane vesicles; assay type: in vitro ADME; conditions: MRP4-mediated ATP-dependent uptake of folic acid
T4 construct: purchased Thermo Fisher Scientific; host or cells: Sf9

[16] = Projected human exposure for a 60 mg oral dose
[17] = test system: CYP1A2; assay: CYP induction in cryopreserved human hepatocytes; conditions: for mRNA Mean Fold Change ± SD CYP1A2: 48 h, n = 3 donors, vs DMSO vehicle

Sequence of CYP2C19 (P33261 whole entry): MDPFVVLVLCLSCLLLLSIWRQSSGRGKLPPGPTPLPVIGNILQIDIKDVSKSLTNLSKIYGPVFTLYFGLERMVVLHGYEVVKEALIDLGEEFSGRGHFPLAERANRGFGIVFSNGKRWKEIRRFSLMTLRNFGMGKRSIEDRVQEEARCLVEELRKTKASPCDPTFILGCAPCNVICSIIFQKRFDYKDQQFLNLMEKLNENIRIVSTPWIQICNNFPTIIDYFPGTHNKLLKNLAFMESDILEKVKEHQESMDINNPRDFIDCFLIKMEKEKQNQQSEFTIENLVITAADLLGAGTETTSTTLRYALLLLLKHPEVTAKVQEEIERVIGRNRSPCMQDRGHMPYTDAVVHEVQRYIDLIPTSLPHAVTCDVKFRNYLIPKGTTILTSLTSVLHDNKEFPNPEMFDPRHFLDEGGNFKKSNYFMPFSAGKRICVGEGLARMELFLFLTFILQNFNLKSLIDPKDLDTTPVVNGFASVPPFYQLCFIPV
Sequence of CYP2D6 (P10635 whole entry): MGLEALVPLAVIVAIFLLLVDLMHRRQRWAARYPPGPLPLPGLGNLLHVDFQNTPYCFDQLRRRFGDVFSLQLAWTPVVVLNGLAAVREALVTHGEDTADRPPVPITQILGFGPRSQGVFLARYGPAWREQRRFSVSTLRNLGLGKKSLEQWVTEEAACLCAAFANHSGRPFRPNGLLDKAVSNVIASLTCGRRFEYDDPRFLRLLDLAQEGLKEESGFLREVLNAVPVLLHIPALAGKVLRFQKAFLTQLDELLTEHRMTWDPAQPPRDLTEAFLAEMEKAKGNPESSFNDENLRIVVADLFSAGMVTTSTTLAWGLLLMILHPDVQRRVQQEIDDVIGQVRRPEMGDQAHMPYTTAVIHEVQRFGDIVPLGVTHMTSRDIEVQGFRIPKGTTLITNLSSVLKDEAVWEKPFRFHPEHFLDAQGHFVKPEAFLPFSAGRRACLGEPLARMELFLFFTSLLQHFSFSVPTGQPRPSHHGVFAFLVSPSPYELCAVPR
Sequence of CYP3A4 (Homo sapiens, UniProt P08684) (P08684 whole entry): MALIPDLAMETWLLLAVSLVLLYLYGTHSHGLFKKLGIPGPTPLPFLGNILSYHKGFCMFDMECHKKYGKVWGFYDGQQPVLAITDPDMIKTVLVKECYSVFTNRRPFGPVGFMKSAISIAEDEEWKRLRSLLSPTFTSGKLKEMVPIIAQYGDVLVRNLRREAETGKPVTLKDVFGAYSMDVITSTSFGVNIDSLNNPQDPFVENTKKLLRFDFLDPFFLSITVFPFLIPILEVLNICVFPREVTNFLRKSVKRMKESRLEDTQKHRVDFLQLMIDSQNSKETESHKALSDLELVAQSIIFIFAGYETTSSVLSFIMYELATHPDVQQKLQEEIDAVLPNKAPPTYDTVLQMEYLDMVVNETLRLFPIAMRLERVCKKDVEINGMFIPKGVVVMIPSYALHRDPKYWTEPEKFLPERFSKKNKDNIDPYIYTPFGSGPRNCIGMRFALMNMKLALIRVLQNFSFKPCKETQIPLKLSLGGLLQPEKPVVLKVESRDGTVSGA
T1 sequence (P00813 whole entry): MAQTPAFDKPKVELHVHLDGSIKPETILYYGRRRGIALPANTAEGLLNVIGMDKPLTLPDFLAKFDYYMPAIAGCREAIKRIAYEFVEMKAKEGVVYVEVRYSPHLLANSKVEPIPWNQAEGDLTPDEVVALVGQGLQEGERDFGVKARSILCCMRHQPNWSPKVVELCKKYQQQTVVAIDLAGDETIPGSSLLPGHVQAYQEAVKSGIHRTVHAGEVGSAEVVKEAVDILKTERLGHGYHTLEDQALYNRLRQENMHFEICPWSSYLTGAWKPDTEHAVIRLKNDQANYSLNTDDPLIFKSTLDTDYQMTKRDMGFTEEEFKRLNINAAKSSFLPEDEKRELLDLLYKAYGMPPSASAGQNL
T4 sequence (O15439 whole entry): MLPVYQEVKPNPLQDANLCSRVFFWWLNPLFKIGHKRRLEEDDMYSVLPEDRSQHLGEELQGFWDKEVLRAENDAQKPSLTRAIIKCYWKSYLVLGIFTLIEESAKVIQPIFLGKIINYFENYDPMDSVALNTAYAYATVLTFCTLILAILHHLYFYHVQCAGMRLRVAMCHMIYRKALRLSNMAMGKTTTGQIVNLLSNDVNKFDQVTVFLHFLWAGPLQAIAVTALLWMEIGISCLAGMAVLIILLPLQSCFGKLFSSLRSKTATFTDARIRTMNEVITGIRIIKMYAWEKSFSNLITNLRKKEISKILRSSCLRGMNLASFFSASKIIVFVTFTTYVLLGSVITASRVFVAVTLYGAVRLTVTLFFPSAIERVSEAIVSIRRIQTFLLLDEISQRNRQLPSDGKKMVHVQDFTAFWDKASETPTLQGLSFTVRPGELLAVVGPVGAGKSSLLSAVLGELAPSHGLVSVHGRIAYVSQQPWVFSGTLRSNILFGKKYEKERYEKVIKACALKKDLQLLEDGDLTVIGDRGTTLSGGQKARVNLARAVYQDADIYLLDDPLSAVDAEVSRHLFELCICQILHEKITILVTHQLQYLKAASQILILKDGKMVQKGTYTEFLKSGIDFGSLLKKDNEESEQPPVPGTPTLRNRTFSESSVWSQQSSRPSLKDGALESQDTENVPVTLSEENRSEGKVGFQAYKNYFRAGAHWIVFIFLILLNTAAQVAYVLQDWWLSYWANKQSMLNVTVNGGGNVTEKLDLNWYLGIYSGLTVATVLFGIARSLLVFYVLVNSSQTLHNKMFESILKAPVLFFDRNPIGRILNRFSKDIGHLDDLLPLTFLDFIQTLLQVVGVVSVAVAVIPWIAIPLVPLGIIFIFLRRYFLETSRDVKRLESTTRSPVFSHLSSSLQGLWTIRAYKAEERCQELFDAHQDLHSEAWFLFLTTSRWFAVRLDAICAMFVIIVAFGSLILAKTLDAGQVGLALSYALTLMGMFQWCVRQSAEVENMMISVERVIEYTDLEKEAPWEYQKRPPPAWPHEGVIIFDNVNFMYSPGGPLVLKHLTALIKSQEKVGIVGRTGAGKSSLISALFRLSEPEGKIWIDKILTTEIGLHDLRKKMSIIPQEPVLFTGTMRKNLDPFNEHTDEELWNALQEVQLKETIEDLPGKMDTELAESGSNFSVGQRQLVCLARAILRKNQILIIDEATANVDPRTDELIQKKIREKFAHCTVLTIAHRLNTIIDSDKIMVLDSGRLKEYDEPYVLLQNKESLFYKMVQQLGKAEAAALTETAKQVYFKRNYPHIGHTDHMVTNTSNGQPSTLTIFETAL

C#C[C@]1(CO)O[C@@H](n2cnc3c(N)nc(F)nc32)C[C@@H]1O [Islatravir, 4′-Ethynyl-2-fluoro-2′-deoxyadenosine]
concentration dependence of binding to plasma proteins ([1]; 0.1 to 10 µM, all species tested): did not exhibit concentration dependence
fraction unbound at 24 h, 0.1 µM ([1]; pH 7.4, human plasma, 0.1 µM islatravir, ± standard deviation): 0.96 ± 0.04
fraction unbound at 24 h, 0.1 µM [2]: > 0.84
fraction unbound at 24 h, 0.1 µM [3]: > 0.84
turnover [4]: low turnover
ADA-dependent deamination ([5]; 50 µM, 3 h, 1 unit/mL recombinant human ADA): very slow ADA-dependent deamination to M4
Km ([5]; M4 formation, linear over 1-250 µM islatravir, read-out: Michaelis constant [Km]): > 250 µM
Renal Excretion (% Total Plasma Clearance) [6]: 61%
CL renal ([6]; male, CD-1, plasma and urine, iv, urine 0-24 h): 15.4 mL/min/kg
Renal Excretion (% Total Plasma Clearance) [7]: 31%
CL renal ([7]; female, Dutch Belted, plasma and urine, iv, urine 0-48 h): 5.3 mL/min/kg
DDI Potential ([8]; CYP2C8 reversible inhibition, FDA, EMA, PMDA guidance): Low risk
Maximum Unbound Plasma Concentration (Imax,u) to Ki,u Ratio ([8]; CYP2C8 reversible, 60 mg, Cmax 1.01 µM, fu,p 0.96, Ki,u = IC50/2): <0.019 µM
IC50 ([8]; reversible, CYP2C8 amodiaquine N-deethylation, read-out: Islatravir IC50): > 100 µM
DDI Potential ([9]; CYP2D6 reversible inhibition, FDA, EMA, PMDA guidance): Low risk
Maximum Unbound Plasma Concentration (Imax,u) to Ki,u Ratio ([9]; CYP2D6 reversible, 60 mg, Cmax 1.01 µM, fu,p 0.96, Ki,u = IC50/2): <0.019 µM
IC50 ([9]; reversible, CYP2D6 dextromethorphan O-demethylation, read-out: Islatravir IC50): > 100 µM
DDI Potential ([10]; CYP3A4 reversible inhibition, FDA, EMA, PMDA guidance): Low risk
Maximum Unbound Plasma Concentration (Imax,u) to Ki,u Ratio ([10]; CYP3A4 reversible, 60 mg, Cmax 1.01 µM, fu,p 0.96, Ki,u = IC50/2): <0.010 µM
Intestinal Concentration (Igut) to Ki,u Ratio ([10]; CYP3A4 reversible, Igut = 60 mg/250 mL = 818 µM): <8.2 µM
time-dependent inhibition ([11]; CYP2C8, pre-incubation of 10 and 50 µM for up to 30 min): no time-dependent inhibition
DDI Potential ([11]; CYP2C8 time dependent inhibition): Low risk ^h
IC50 ([11]; time dependent, CYP2C8, read-out: Islatravir IC50): > 50 µM
time-dependent inhibition ([12]; CYP2C19, pre-incubation of 10 and 50 µM for up to 30 min): no time-dependent inhibition
DDI Potential ([12]; CYP2C19 time dependent inhibition): Low risk ^h
IC50 ([12]; time dependent, CYP2C19, read-out: Islatravir IC50): > 50 µM
mRNA Mean Fold Change ± SD CYP3A4 ([13]; 0.1 µM): 0.6 ± 0.2
mRNA Mean Fold Change ± SD CYP3A4 ([13]; 0.5 µM): 0.6 ± 0.2
mRNA Mean Fold Change ± SD CYP3A4 ([13]; 1 µM): 0.6 ± 0.2
mRNA Mean Fold Change ± SD CYP3A4 ([13]; 5 µM): 0.5 ± 0.1
mRNA Mean Fold Change ± SD CYP3A4 ([13]; 10 µM): 0.6 ± 0.1
mRNA Mean Fold Change ± SD CYP3A4 ([13]; 20 µM): 0.1 ± 0.1
mRNA response relative to positive control ([13]; CYP3A4, each tested concentration 0.1-20 µM): less than 20%
enzyme activity, fold of solvent control ([13]; CYP3A4 testosterone 6β-hydroxylation, all islatravir concentrations): ≤ 1.1 fold
IC50 ([14]; OATP1B1-mediated uptake of pitavastatin, read-out: Islatravir IC50): > 300 µM
Maximum Unbound Inlet Concentration (Iin,max,u) to IC50 Ratio ([14]; OATP1B1, 60 mg dose): <0.035
DDI Potential ([14]; OATP1B1 inhibition, FDA, EMA, PMDA guidance): Low risk
IC50 [15]: > 100 µM
projected maximum free concentration at the liver inlet [16]: approximately 10 µM
mRNA Mean Fold Change ± SD CYP1A2 ([17]; 0.1 µM): 0.4 ± 0.2
mRNA Mean Fold Change ± SD CYP1A2 ([17]; 0.5 µM): 0.4 ± 0.2
mRNA Mean Fold Change ± SD CYP1A2 ([17]; 1 µM): 0.5 ± 0.3
mRNA Mean Fold Change ± SD CYP1A2 ([17]; 5 µM): 0.4 ± 0.3
mRNA Mean Fold Change ± SD CYP1A2 ([17]; 10 µM): 0.5 ± 0.4
mRNA Mean Fold Change ± SD CYP1A2 ([17]; 20 µM): 0.2 ± 0.2
mRNA response relative to positive control ([17]; CYP1A2, each tested concentration 0.1-20 µM): less than 20%
enzyme activity, fold of solvent control ([17]; CYP1A2 phenacetin O-deethylation, all islatravir concentrations): ≤ 1.1 fold
